Assays:
[1] = test system: HDAC1; details: read-out: IC50 (HDAC1); previously reported, Figure 1; cited from earlier work
[2] = test system: HDAC2; details: read-out: IC50 (HDAC2); previously reported, Figure 1; cited from earlier work
[3] = test system: HDAC3; details: read-out: IC50 (HDAC3); cited from earlier work
[4] = molecular target: T1, human HDAC1 (Homo sapiens, UniProt Q13547); assay: In vitro HDAC1 inhibition assay, fluorogenic p53 peptide Ac-RHKK(Acetyl)-AMC; format: biochemical; details: for IC50: 10 nM HDAC1, 20 µM substrate, 90 min, 37 °C; for inhibition at 2 µM: read-out: HDAC1 % inhibition @ 2 µM
T1 construct: purchased ENZO Life Sciences AG (Lausen, CH)
T1 sequence (Q13547 whole entry): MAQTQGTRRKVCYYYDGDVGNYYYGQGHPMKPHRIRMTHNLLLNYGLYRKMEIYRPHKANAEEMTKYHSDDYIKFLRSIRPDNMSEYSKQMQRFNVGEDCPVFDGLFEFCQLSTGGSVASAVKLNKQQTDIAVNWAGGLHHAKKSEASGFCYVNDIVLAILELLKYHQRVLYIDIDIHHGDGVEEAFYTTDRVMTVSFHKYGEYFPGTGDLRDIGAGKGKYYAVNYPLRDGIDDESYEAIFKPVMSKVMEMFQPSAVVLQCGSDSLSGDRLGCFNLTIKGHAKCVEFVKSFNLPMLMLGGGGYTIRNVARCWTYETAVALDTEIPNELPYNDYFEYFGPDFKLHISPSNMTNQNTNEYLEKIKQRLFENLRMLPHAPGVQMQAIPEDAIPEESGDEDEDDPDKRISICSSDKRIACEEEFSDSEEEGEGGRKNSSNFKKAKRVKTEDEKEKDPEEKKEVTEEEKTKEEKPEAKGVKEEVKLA
Procedure: (§1) Recombinant human HDAC1, HDAC2, and HDAC3/NCOR1 were purchased from ENZO Life Sciences AG (Lausen, CH). Recombinant human HDAC 4, HDAC5, HDAC7, HDAC9 and HDAC11 were produced by Barinka lab in Prague, as described before. Recombinant human HDAC8 was produced by Romier et al. (IGBMC, Univ. Strasbourg), as described in [55].
(§2) The in vitro testing on recombinant HDACs 1-3 were performed with a fluorogenic peptide derived from p53 (Ac-RHKK(Acetyl)-AMC). The measurements were performed in an assay buffer (50 mM Hepes, 150 mM NaCl, 5 mM MgCl2, 1 mM TCEP and 0.2 mg/mL BSA, pH 7.4 adjusted with NaOH) at 37 °C. Inhibitors at different concentrations were incubated with 10 nM HDAC1, 3 nM HDAC2 or 3 nM HDAC3 (final concentration) for at least 5 min. The reaction was started with the addition of the fluorogenic substrate (20 µM final concentration) and incubated for 30 min for HDAC2 and HDAC3 and 90 min for HDAC1. The reaction was stopped with a solution of 1 mg/mL trypsin and 20 µM SAHA in 1 mM HCl and incubated for 1 h at 37 °C. […] The received fluorescence intensities were normalized with uninhibited reaction as 100% and the reaction without enzyme as 0%. A nonlinear regression analysis was done to determine the IC50 value.

[5] = molecular target: T2, human HDAC2 (Homo sapiens, UniProt Q92769); assay: In vitro HDAC2 inhibition assay, fluorogenic p53 peptide Ac-RHKK(Acetyl)-AMC; format: biochemical; details: for IC50: 3 nM HDAC2, 20 µM substrate, 30 min, 37 °C; for inhibition at 2 µM: read-out: HDAC2 % inhibition @ 2 µM
T2 construct: purchased ENZO Life Sciences AG (Lausen, CH)
T2 sequence (Q92769 whole entry): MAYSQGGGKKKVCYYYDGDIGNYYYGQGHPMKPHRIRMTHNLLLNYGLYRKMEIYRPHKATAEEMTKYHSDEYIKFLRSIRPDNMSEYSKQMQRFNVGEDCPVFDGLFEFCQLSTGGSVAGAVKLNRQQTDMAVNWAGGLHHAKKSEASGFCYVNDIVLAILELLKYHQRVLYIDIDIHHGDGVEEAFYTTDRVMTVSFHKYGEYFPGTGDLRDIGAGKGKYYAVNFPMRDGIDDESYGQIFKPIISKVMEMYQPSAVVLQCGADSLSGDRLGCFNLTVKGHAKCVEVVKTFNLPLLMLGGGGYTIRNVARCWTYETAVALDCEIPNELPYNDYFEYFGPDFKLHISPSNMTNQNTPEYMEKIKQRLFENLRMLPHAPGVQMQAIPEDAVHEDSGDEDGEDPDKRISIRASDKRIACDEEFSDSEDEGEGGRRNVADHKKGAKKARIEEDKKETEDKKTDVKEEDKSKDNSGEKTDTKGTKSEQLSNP
Procedure: as §1, §2

[6] = molecular target: T3, human HDAC3/NCOR1 (Homo sapiens, UniProt O15379); assay: In vitro HDAC3 inhibition assay, fluorogenic p53 peptide Ac-RHKK(Acetyl)-AMC; format: biochemical; details: for IC50: 3 nM HDAC3, 20 µM substrate, 30 min, 37 °C; for inhibition at 2 µM: read-out: HDAC3 % inhibition @ 2 µM
T3 construct: purchased ENZO Life Sciences AG (Lausen, CH)
T3 sequence (O15379 whole entry): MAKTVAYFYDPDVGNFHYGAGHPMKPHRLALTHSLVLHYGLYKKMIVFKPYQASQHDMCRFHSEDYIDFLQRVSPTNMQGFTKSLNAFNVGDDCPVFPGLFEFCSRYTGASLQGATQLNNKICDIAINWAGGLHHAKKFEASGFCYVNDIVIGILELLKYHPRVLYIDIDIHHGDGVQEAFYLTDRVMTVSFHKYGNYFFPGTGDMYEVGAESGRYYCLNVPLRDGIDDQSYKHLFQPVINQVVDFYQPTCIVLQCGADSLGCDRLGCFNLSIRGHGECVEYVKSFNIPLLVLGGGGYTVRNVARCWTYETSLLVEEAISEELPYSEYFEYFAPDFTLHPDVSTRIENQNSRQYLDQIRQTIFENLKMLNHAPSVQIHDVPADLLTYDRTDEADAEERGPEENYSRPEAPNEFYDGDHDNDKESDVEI
T3 sequence (O75376 395-489 partner limits assumed): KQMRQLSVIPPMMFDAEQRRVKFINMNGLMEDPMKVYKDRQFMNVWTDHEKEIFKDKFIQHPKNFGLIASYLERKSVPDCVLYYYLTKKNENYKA
Procedure: as §1, §2

[7] = molecular target: T4, human HDAC8 (Homo sapiens, UniProt Q9BY41); assay: HDAC8 homogenous fluorescence assay with ZMAL substrate; format: biochemical; details: read-out: HDAC8 (% Inhib.)
T4 construct: made in house
T4 sequence (Q9BY41 1-377): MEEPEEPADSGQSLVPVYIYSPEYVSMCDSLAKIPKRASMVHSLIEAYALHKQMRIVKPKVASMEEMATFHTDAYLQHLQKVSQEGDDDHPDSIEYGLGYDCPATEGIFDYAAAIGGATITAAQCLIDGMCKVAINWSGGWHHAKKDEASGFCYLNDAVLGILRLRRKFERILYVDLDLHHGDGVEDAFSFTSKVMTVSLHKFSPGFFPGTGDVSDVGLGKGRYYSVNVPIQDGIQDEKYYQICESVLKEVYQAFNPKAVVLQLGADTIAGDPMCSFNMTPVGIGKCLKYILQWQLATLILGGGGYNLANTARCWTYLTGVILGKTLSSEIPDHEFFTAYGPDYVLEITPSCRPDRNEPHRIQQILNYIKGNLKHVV
Procedure: as §1
Fluorescence intensity was measured at an excitation wavelength of 390 nm and an emission wavelength of 460 nm in a microtiter plate reader (BMG Polarstar).

[8] = in vitro; details: human, HEK293 cells
Procedure: The cells were incubated for 48 h with the HDACi at a concentration of 50 µM, and cell viability was determined by the Alamar Blue assay.
To determine the cytotoxicity of the developed compounds on the human epithelial kidney, cell line HEK293 was used. HEK293 cells (DSMZ Braunschweig, ACC305) were incubated at 37 °C in a humidified incubator with 5% CO2 in Dulbecco’s Modified Eagle Medium (DMEM) supplemented with 10% FCS and 5 mM glutamine. Cells were seeded out at 1.5 x 10^3 cells per well in a 96-well cell culture plate (TPP, Switzerland). The compounds to be tested were added immediately to the medium at 50 µM. After 24 h, Alamar Blue reagent (Invitrogen, CA) was added according to the manufacturer’s instructions and incubated again for 21 h before samples were analyzed. Detection of viable cells which convert the resazurine reagent into the highly fluorescent resorufin was performed by using a FLUOstarOPTIMA microplate reader (BMG Labtec) with the following filter set: Ex 530 nm/Em 590 nm. Measurements were performed in triplicate and data are means with standard deviation <12%.

[9] = test system: MV4-11 cells; assay: Apoptosis in MV4-11 cells, annexin-V-FITC/PI flow cytometry; format: cell-based, human; details: MV4-11 cells, 0.5 µM, 48 h
Procedure: We measured the induction of early (increased exposure of phosphatidylserine on the cell surface and therefore positive staining for annexin-V-FITC) and late apoptosis (positivity for annexin-V and accumulation of propidium iodide, PI) by flow cytometry.
All leukemic cells were kept in RPMI-1640 medium supplemented with 10% FBS and 1%penicillin/streptomycin (Sigma-Aldrich, Taufkirchen, Germany) under standard culture conditions at 37 °C and a 5% CO2 humidified atmosphere. Cells were authenticated as mentioned by us.

## CC(=O)Nc1ccc(C(=O)Nc2ccc(F)cc2N)cc1 [BRD3308]
[1]
  IC50: 1.08 µM
[2]
  IC50: 1.15 µM
[3]
  IC50: 0.064 µM

## Nc1ccccc1NC(=O)c1cnc(N2CCN(Cc3ccccn3)CC2)cn1 [19d, N-(2-Aminophenyl)-5-(4-(pyridin-2-ylmethyl)piperazin-1-yl)pyrazine-2-carboxamide]
[4]
  IC50: 0.52 ± 0.07 µM
[5]
  IC50: 1.43 ± 0.08 µM
[6]
  IC50: 1.06 ± 0.04 µM
[7]
  inhibition at 1 µM: 0%
[8]
  viability at 48 h, 50 µM: 67.7%

## Cn1cc(CN2CCN(c3cnc(C(=O)Nc4ccccc4N)cn3)CC2)c2ccccc21 [19k, N-(2-aminophenyl)-5-(4-((1-methyl-1H-indol-3-yl)methyl)piperazin-1-yl)pyrazine-2-carboxamide]
[4]
  IC50: 0.14 ± 0.02 µM
[5]
  IC50: 0.56 ± 0.04 µM
[6]
  IC50: 0.59 ± 0.03 µM
[7]
  inhibition at 1 µM: 0%
[8]
  viability at 48 h, 50 µM: 71.4%

## Nc1ccc(-c2ccccc2F)cc1NC(=O)c1cnc(N2CCN(CCc3c[nH]c4ccccc34)CC2)cn1 [21c, 5-(4-(2-(1H-indol-3-yl)ethyl)piperazin-1-yl)-N-(4-amino-2’-fluoro-[1,1’-biphenyl]-3-yl)pyrazine-2-carboxamide]
[4]
  IC50: 0.76 ± 0.07 µM
[5]
  IC50: 0.76 ± 0.04 µM
[6]
  IC50: 15 ± 1 µM
[7]
  inhibition at 1 µM: 0%
[8]
  viability at 48 h, 50 µM: 72.3%

## Nc1ccc(-c2ccc(F)cc2)cc1NC(=O)c1cnc(N2CCN(CCc3c[nH]c4ccccc34)CC2)cn1 [21b, 5-(4-(2-(1H-indol-3-yl)ethyl)piperazin-1-yl)-N-(4-amino-4’-fluoro-[1,1’-biphenyl]-3-yl)pyrazine-2-carboxamide]
[4]
  IC50: 0.7 ± 0.08 µM
[5]
  IC50: 0.77 ± 0.06 µM
[6]; read-out: HDAC3 % inhibition @ 1 µM
  inhibition at 1 µM: 0%
[7]
  inhibition at 1 µM: 0%
[8]
  viability at 48 h, 50 µM: 71%

## Cn1cc(CN2CCN(c3ncc(C(=O)Nc4ccccc4N)cn3)CC2)c2ccccc21 [19j, N-(2-aminophenyl)-2-(4-((1-methyl-1H-indol-3-yl)methyl)piperazin-1-yl)pyrimidine-5-carboxamide]
[4]
  IC50: 0.45 ± 0.06 µM
[5]
  IC50: 0.93 ± 0.04 µM
[6]
  IC50: 1.75 ± 0.06 µM
[7]
  inhibition at 1 µM: 0%
[8]
  viability at 48 h, 50 µM: 62.5%

## Nc1ccccc1NC(=O)c1cnc(N2CCN(CCc3ccc(Cl)cc3)CC2)cn1 [19b, N-(2-Aminophenyl)-5-(4-(4-chlorophenethyl)piperazin-1-yl)pyrazine-2-carboxamide]
[4]
  inhibition at 2 µM: 25.8%
[5]
  inhibition at 2 µM: 30.3%
[6]
  inhibition at 2 µM: 65.2%
[7]
  inhibition at 1 µM: 3.4%
[8]
  viability at 48 h, 50 µM: 78.6%

## Nc1ccccc1NC(=O)c1cnc(N2CCN(CCc3c[nH]c4ccccc34)CC2)cn1 [19g, 5-(4-(2-(1.H-indol-3-yl)ethyl)piperazin-1-yl)-N-(2-aminophenyl)pyrazine-2-carboxamide]
[4]
  IC50: 0.31 ± 0.03 µM
[5]
  IC50: 0.96 ± 0.05 µM
[6]
  IC50: 0.49 ± 0.06 µM
[7]
  inhibition at 1 µM: 0%
[8]
  viability at 48 h, 50 µM: 71.8%

## Nc1cc(F)ccc1NC(=O)c1cnc(N2CCNCC2)cn1 [23a, N-(2-Amino-4-fluorophenyl)-5-(piperazin-1-yl)pyrazine-2-carboxamide]
[4]
  IC50: 3.3 ± 0.18 µM
[5]
  IC50: 2.2 ± 0.2 µM
[6]
  IC50: 0.4 ± 0.01 µM
[7]
  inhibition at 1 µM: 0%
[8]
  viability at 48 h, 50 µM: 67%

## Nc1ccc(-c2ccccc2)cc1NC(=O)c1cccnc1 [IX]
[2]
  IC50: 0.9 µM
[3]
  IC50: 11 µM

## Cn1cc(CCN2CCN(c3cnc(C(=O)Nc4ccc(F)cc4N)cn3)CC2)c2ccccc21 [19m, N-(2-Amino-4-fluorophenyl)-5-(4-(2-(1-methyl-1H-indol-3-yl)ethyl)piperazin-1-yl)pyrazine-2-carboxamide]
[4]
  IC50: 0.4 ± 0.06 µM
[5]
  IC50: 1.48 ± 0.19 µM
[6]
  IC50: 0.4 ± 0.02 µM
[8]
  viability at 48 h, 50 µM: 52.5%

## CN1CCN(c2cnc(C(=O)Nc3cc(-c4ccsc4)ccc3N)cn2)CC1 [29a, N-(2-amino-5-(thiophen-3-yl)phenyl)-5-(4-methylpiperazin-1-yl)pyrazine-2-carboxamide]
[4]
  IC50: 0.11 ± 0.01 µM
[5]
  IC50: 0.18 ± 0.06 µM
[6]
  IC50: 4.4 ± 0.1 µM
[8]
  viability at 48 h, 50 µM: 65.8%

## Nc1ccc(-c2cccs2)cc1NC(=O)c1ccc(CNC(=O)OCc2cccnc2)cc1 [VII]
[1]
  IC50: […]
[2]
  IC50: 0.1 µM

## Nc1ccccc1NC(=O)c1cnc(N2CCN(CCc3ccccc3)CC2)cn1 [19a, N-(2-Aminophenyl)-5-(4-phenethylpiperazin-1-yl)pyrazine-2-carboxamide]
[4]
  IC50: 0.51 ± 0.05 µM
[5]
  IC50: 0.8 ± 0.07 µM
[6]
  IC50: 1.12 ± 0.07 µM
[7]
  inhibition at 1 µM: 0%
[8]
  viability at 48 h, 50 µM: 73.1%

## Nc1ccccc1NC(=O)c1cnc(N2CCN(Cc3ccccn3)CC2)nc1 [19c, N-(2-aminophenyl)-2-(4-(pyridin-2-yl-methyl)piperazin-1-yl)pyrimidine-5-carboxamide]
[4]
  inhibition at 2 µM: 33.9%
[5]
  inhibition at 2 µM: 20.1%
[6]
  inhibition at 2 µM: 26.8%
[7]
  inhibition at 1 µM: 0%
[8]
  viability at 48 h, 50 µM: 78.7%

## Cn1cc(CN2CCN(c3cnc(C(=O)Nc4cc(F)ccc4N)cn3)CC2)c2ccccc21 [23b, 4-(5-((2-Amino-5-fluorophenyl)carbamoyl)pyrazin-2-yl)-1-((1-methyl-1H-indol-3-yl)methyl)piperazin-1-ium chloride]
[4]
  IC50: 0.27 ± 0.03 µM
[5]
  IC50: 0.5 ± 0.03 µM
[6]
  IC50: 0.5 ± 0.02 µM
[7]
  inhibition at 1 µM: 38%
[8]
  viability at 48 h, 50 µM: 58.7%

## Nc1ccc(-c2cccs2)cc1NC(=O)c1cnc(N2CCNCC2)cn1 [29b, N-(2-Amino-5-(thiophen-2-yl)phenyl)-5-(piperazin-1-yl)pyrazine-2-carboxamide]
[4]
  IC50: 0.07 ± 0.01 µM
[5]
  IC50: 0.26 ± 0.01 µM
[6]
  IC50: 6.1 ± 0.7 µM
[9]
  induction of early and late apoptosis: apoptosis in about half of the MV4-11 cell population
[8]
  viability at 48 h, 50 µM: 2.4%

## Nc1cc(F)c(F)cc1NC(=O)c1cnc(N2CCNCC2)cn1 [25b, N-(2-amino-4,5-difluorophenyl)-5-(piperazin-1-yl)pyrazine-2-carboxamide]
[4]
  IC50: 4.3 ± 0.3 µM
[5]
  IC50: 4.2 ± 0.1 µM
[6]
  IC50: 1.6 ± 0.1 µM
[8]
  viability at 48 h, 50 µM: 83.7%

## Nc1ccccc1NC(=O)c1cnc(N2CCN(Cc3csc4ccccc34)CC2)cn1 [19e, N-(2-Aminophenyl)-5-(4-(benzo[b]thiophen-3-ylmethyl)piperazin-1-yl)pyrazine-2-carboxamide]
[4]
  IC50: 0.21 ± 0.07 µM
[5]
  IC50: 0.71 ± 0.04 µM
[6]
  IC50: 0.84 ± 0.03 µM
[7]
  inhibition at 1 µM: 0%
[8]
  viability at 48 h, 50 µM: 50.9%
